From US20250136576A1, “Heterocyclic Compounds and Uses Thereof” (ACEA Therapeutics, Inc., priority 2021, published 2025)

tested on: KM12-luc cells; assay: Cell proliferation and growth inhibition assay (CCK-8) in KM12-luc; type: cell-based; details: KM12-Luc, 72 h, KM12-luc cells, treated with test compounds for 72 hrs, CCK-8 viability; read-out: NTRK IC50 in KM12-luc
Summary of the method: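 IC50 values were fitted by sigmoidal dose-response non-linear regression of CCK-8 OD450 absorbance after 1-4 hrs with reagent. Culture media were IMDM for MV-4-11, RPMI 1640 for H1975 and DMEM for KM12-luc, each with 10% FBS at 37 °C, 5% CO2.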

| Compound | IC50 |
| --- | --- |
| CC(=O)Nc1cc(Nc2ncc(Cl)c(-c3cn(C)c4ccccc34)n2)ccc1NC(=O)CN(C)C [Compound 407, N-(2-acetamido-4-((5-chloro-4-(1-methyl-1H-indol-3-yl)pyrimidin-2-yl)amino)phenyl)-2-(dimethylamino)acetamide] | 44.4 nM |
| CC(=O)Nc1cc(Nc2ncc(Cl)c(-c3cn(C)c4ccccc34)n2)ccc1NC(=O)CCN(C)C [Compound 408, N-(2-acetamido-4-((5-chloro-4-(1-methyl-1H-indol-3-yl)pyrimidin-2-yl)amino)phenyl)-3-(dimethylamino)propanamide] | 19.7 nM |
| CN(C)CCN(C)c1ccc(Nc2ncc(Cl)c(-c3c[nH]c4c(F)cccc34)n2)cc1N [Compound 411, N^4-(5-chloro-4-(7-fluoro-1H-indol-3-yl)pyrimidin-2-yl)-N^1-(2-(dimethylamino)ethyl)-N^1-methylbenzene-1,2,4-triamine] | 12.8 nM |
| CN(C)CCN(C)c1ccc(Nc2ncc(Cl)c(-c3cn(C)c4c(F)cccc34)n2)cc1N [Compound 417, N^4-(5-chloro-4-(7-fluoro-1-methyl-1H-indol-3-yl)pyrimidin-2-yl)-N^1-(2-(dimethylamino)ethyl)-N^1-methylbenzene-1,2,4-triamine] | 94.2 nM |
| CC(=O)Nc1cc(Nc2ncc(Cl)c(-c3cn(C)c4c(F)cccc34)n2)ccc1N(C)CCN(C)C [Compound 418, N-(5-((5-chloro-4-(7-fluoro-1-methyl-1H-indol-3-yl)pyrimidin-2-yl)amino)-2-((2-(dimethylamino)ethyl)(methyl)amino)phenyl)acetamide] | 79.2 nM |
| Cc1cccc2c(-c3nc(Nc4ccc(N(C)CCN(C)C)c(N)c4)ncc3Cl)cn(C)c12 [Compound 428, N^4-(5-chloro-4-(1,7-dimethyl-1H-indol-3-yl)pyrimidin-2-yl)-N^1-(2-(dimethylamino)ethyl)-N^1-methylbenzene-1,2,4-triamine] | 46.4 nM |
| CC(=O)Nc1cc(Nc2ncc(Cl)c(-c3cn(C)c4c(C)cccc34)n2)ccc1N(C)CCN(C)C [Compound 429, N-(5-((5-chloro-4-(1,7-dimethyl-1H-indol-3-yl)pyrimidin-2-yl)amino)-2-((2-(dimethylamino)ethyl)(methyl)amino)phenyl)acetamide] | 475 nM |
| COc1cccc2c(-c3nc(Nc4ccc(N(C)CCN(C)C)c(NC(C)=O)c4)ncc3Cl)cn(C)c12 [Compound 434, N-(5-(5-chloro-4-(7-methoxy-1-methyl-1H-indol-3-yl)pyrimidin-2-ylamino)-2-((2-(dimethylamino)ethyl)(methyl)amino)phenyl)acetamide] | 97.1 nM |
| COc1cccc2c(-c3nc(Nc4ccc(N(C)CCN(C)C)c(N)c4)ncc3Cl)cn(C)c12 [Compound 437, N^4-(5-chloro-4-(7-methoxy-1-methyl-H-indol-3-yl)pyrimidin-2-yl)-N^1-(2-(dimethylamino)ethyl)-N^1-methylbenzene-1,2,4-triamine] | 109 nM |
| CC(=O)Nc1cc(Nc2ncc(Cl)c(-c3c[nH]c4ccccc34)n2)cc(F)c1N(C)CCN(C)C [Compound 441, N-(5-((5-chloro-4-(1H-indol-3-yl)pyrimidin-2-yl)amino)-2-((2-(dimethylamino)ethyl)(methyl)amino)-3-fluorophenyl)acetamide] | 24.9 nM |
| CCN(CCN(C)C)c1c(F)cc(Nc2ncc(Cl)c(-c3c[nH]c4ccccc34)n2)cc1NC(C)=O [Compound 443, N-(5-((5-chloro-4-(1H-indol-3-yl)pyrimidin-2-yl)amino)-2-((2-(dimethylamino)ethyl) (ethyl)amino)-3-fluorophenyl)acetamide] | 33.3 nM |
| CCN(C(=O)CN(C)C)c1ccc(Nc2ncc(Cl)c(-c3c[nH]c4ccccc34)n2)cc1N [Compound 448, N-(2-amino-4-((5-chloro-4-(1H-indol-3-yl)pyrimidin-2-yl)amino)phenyl)-2-(dimethylamino)-N-ethylacetamide] | > 1000 nM |
| CCN(C(=O)CN(C)C)c1ccc(Nc2ncc(Cl)c(-c3c[nH]c4ccccc34)n2)cc1NC(C)=O [Compound 449, N-(2-acetamido-4-((5-chloro-4-(1H-indol-3-yl)pyrimidin-2-yl)amino)phenyl)-2-(dimethylamino)-N-ethylacetamide] | > 1000 nM |
| CCN(C(=O)CCN(C)C)c1ccc(Nc2ncc(Cl)c(-c3c[nH]c4ccccc34)n2)cc1NC(C)=O [Compound 451, N-(2-acetamido-4-((5-chloro-4-(1H-indol-3-yl)pyrimidin-2-yl)amino)phenyl)-3-(dimethylamino)-N-ethylpropanamide] | 14.2 nM |
| CN1CCN(c2ccc(C(=O)Nc3c[nH]c4cnc(Nc5cc(F)cc(F)c5)nc34)c(NC3CCOCC3)c2)CC1 [Compound 491, N-(2-((3,5-difluorophenyl)amino)-5H-pyrrolo[3,2-d]pyrimidin-7-yl)-4-(4-methylpiperazin-1-yl)-2-((tetrahydro-2H-pyran-4-yl)amino)benzamide] | > 3330 nM |
| CN(C)CCN(C)c1ccc(C(=O)Nc2c[nH]c3cnc(Nc4cc(F)cc(F)c4)nc23)c(NC2CCOCC2)c1 [Compound 493, N-(2-((3,5-difluorophenyl)amino)-5H-pyrrolo[3,2-d]pyrimidin-7-yl)-4-((2-(dimethylamino)ethyl)(methyl)amino)-2-((tetrahydro-2H-pyran-4-yl)amino)benzamide] | > 10000 nM |
| COCCCN(C)c1cc(N2CCN(C)CC2)ccc1C(=O)Nc1c[nH]c2cnc(Nc3cc(F)cc(F)c3)nc12 [Compound 494, N-(2-((3,5-difluorophenyl)amino)-5H-pyrrolo[3,2-d]pyrimidin-7-yl)-2-((3-methoxypropyl)(methyl)amino)-4-(4-methylpiperazin-1-yl)benzamide] | > 1000 nM |
| CN1CCN(c2ccc(C(=O)Nc3c[nH]c4ccc(Nc5cc(F)cc(F)c5)cc34)c(NC3CCOCC3)c2)CC1 [Compound 497, N-(5-((3,5-difluorophenyl)amino)-1H-indol-3-yl)-4-(4-methylpiperazin-1-yl)-2-((tetrahydro-2H-pyran-4-yl)amino)benzamide] | 4030 nM |
| CN(C)CCN(C)c1ccc(C(=O)Nc2c[nH]c3ccc(Nc4cc(F)cc(F)c4)cc23)c(NC2CCOCC2)c1 [Compound 500, N-(5-((3,5-difluorophenyl)amino)-1H-indol-3-yl)-4-((2-(dimethylamino)ethyl)(methyl)amino)-2-((tetrahydro-2H-pyran-4-yl)amino)benzamide] | 3570 nM |
| COCCCN(C)c1cc(N2CCN(C)CC2)ccc1C(=O)Nc1c[nH]c2ccc(Nc3cc(F)cc(F)c3)cc12 [Compound 501, N-(5-((3,5-difluorophenyl)amino)-1H-indol-3-yl)-2-((3-methoxypropyl)(methyl)amino)-4-(4-methylpiperazin-1-yl)benzamide] | > 1000 nM |
| CN1CCN(c2ccc(C(=O)Nc3c[nH]c4cnc(Oc5cc(F)cc(F)c5)nc34)c(NC3CCOCC3)c2)CC1 [Compound 503, N-(2-(3,5-difluorophenoxy)-5H-pyrrolo[3,2-d]pyrimidin-7-yl)-4-(4-methylpiperazin-1-yl)-2-((tetrahydro-2H-pyran-4-yl)amino)benzamide] | 3640 nM |
| CN1CCN(c2ccc(C(=O)Nc3c[nH]c4ccc(Cc5cc(F)cc(F)c5)cc34)c(NC3CCOCC3)c2)CC1 [Compound 505, N-(5-(3,5-difluorobenzyl)-1H-indol-3-yl)-4-(4-methylpiperazin-1-yl)-2-((tetrahydro-2H-pyran-4-yl)amino)benzamide] | > 1000 nM |

same assay, conditions: KM12-luc cells, treated with test compounds for 72 hrs, CCK-8 viability; read-out: NTRK IC50 in KM12-luc

| Compound | IC50 |
| --- | --- |
| CC(=O)Nc1cc(Nc2ncc(Cl)c(-c3c[nH]c4ccccc34)n2)ccc1N(C)CCN(C)C [Compound 440] | 7 nM |
